From US20090233937A1 (TAKEDA PHARMACEUTICAL COMPANY LIMITED, priority 2008, published 2009)

system: human breast cancer cell BT-474; experiment: Inhibitory action on breast cancer cell BT-474 proliferation in vitro; type: cell-based; details: 120 h, BT-474 cells, cultured for 5 days with compound, SRB dye protein content
Procedure: A suspension of human breast cancer cell BT-474 (100 μl (6,000 cells)) were plated in a 96-well microplate and cultured in an incubator (37° C., 5% carbon dioxide). On the following day, 100 μl of a solution of each test compound previously diluted serially in 2-fold, was added, and the cells were cultured for 5 days. After the culture medium containing the test compound was removed, the cells were washed and fixed with 50% trichloroacetic acid, after which a 0.4% (w/v) SRB dye solution (dissolved in 1% acetic acid) was added to stain as well as fix the cell protein (Skehan et al., Journal of the National Cancer Institute, Vol. 82, pp. 1107-1112, 1990). After washing with a 1% acetic acid solution, 100 μl of extract solution (10 mM, Tris buffer) was added to extract the dye and the absorbance was measured at a wavelength of 550 nm to quantify the amount of cells as protein content.

IC50	SMILES
< 100 nM	Cc1cc(Nc2ncnc3ccn(CCNC(=O)C(C)(C)CO)c23)ccc1Oc1cccc2sncc12 [Example 39, N-[2-(4-{[4-(1,2-benzoisothiazol-4-yloxy)-3-methylphenyl]amino}-5H-pyrrolo[3,2-d]pyrimidin-5-yl)ethyl]-3-hydroxy-2,2-dimethylpropanamide]
< 100 nM	CC(C)NC(=O)NCCn1ccc2ncnc(Nc3ccc(Oc4cccc5sncc45)c(Cl)c3)c21 [Example 54, 1-[2-(4-{[4-(1,2-benzoisothiazol-4-yloxy)-3-chlorophenyl]amino}-5H-pyrrolo[3,2-d]pyrimidin-5-yl)ethyl]-3-(1-methylethyl)urea methanesulfonate]
< 100 nM	OCCn1ccc2ncnc(Nc3ccc(Oc4cccc5sncc45)c(Cl)c3)c21 [Example 3, 2-(4-{[4-(1,2-benzoisothiazol-4-yloxy)-3-chlorophenyl]amino}-5H-pyrrolo[3,2-d]pyrimidin-5-yl)ethanol]
< 100 nM	CC(C)(CO)C(=O)NCCn1ccc2ncnc(Nc3ccc(Oc4cccc5sncc45)c(F)c3)c21 [Example 11, N-[2-(4-{[4-(1,2-benzoisothiazol-4-yloxy)-3-fluorophenyl]amino}-5H-pyrrolo[3,2-d]pyrimidin-5-yl)ethyl]-3-hydroxy-2,2-dimethylpropanamide]

SMILES	IC50
CC(C)(N)C(=O)NCCn1ccc2ncnc(Nc3ccc(Oc4cccc5sncc45)c(Cl)c3)c21 [Example 53, N-[2-(4-{[4-(1,2-benzoisothiazol-4-yloxy)-3-chlorophenyl]amino}-5H-pyrrolo[3,2-d]pyrimidin-5-yl)ethyl]-2-methylalaninamide dimethanesulfonate]	< 100 nM
CC(=O)NCCn1ccc2ncnc(Nc3ccc(Oc4cccc5sncc45)c(Cl)c3)c21 [Example 7, N-[2-(4-{[4-(1,2-benzoisothiazol-4-yloxy)-3-chlorophenyl]amino}-5H-pyrrolo[3,2-d]pyrimidin-5-yl)ethyl]acetamide methanesulfonate]	< 100 nM
